Here are results for four compounds from US9346820B2, “HIV-1 protease inhibitors having gem-di-fluoro bicyclic P2-ligands” (priority 2013, dated 2016).

The nature of data set [1]: Cytotoxicity (CC50), MTT assay. The format is cell-based. As to conditions: human. The protocol:
The susceptibility of HIV-1LAI to various drugs was determined as previously described with minor modifications. Briefly, MT-2 cells (10^4/ml) were exposed to 100 50% tissue culture infectious doses (TCID50) of HIV-1LAI in the presence or absence of various concentrations of drugs in 96-well microculture plates and were incubated at 37° C. for 7 days. After 100 μl of the medium was removed from each well, 3-(4,5-dimetylthiazol-2-yl)-2,5-diphenyltetrazolium bromide (MTT) solution (10 μl, 7.5 mg/ml in phosphate-buffered saline) was added to each well in the plate, followed by incubation at 37° C. for 2 h. […] All assays were performed in duplicate or triplicate. […] In determining the drug susceptibility of certain laboratory HIV-1 strains, MT-4 cells were employed as target cells as previously described with minor modifications. In brief, MT-4 cells (10^5/ml) were exposed to 100 TCID50 of drug-resistant HIV-1 strains in the presence or absence of various concentrations of drugs and were incubated at 37° C. On day 7 of culture, the supernatants were harvested and the amounts of p24 Gag protein were determined by using a fully automated chemiluminescent enzyme immunoassay system (Lumipulse F: Fujirebio Inc., Tokyo). […] All assays were performed in duplicate or triplicate. PHA-PBMs were derived from a single donor in each independent experiment. Thus, for obtaining the data, three different donors were recruited.
For orientation: Formazan colour is commonly taken as a measure of viable cells.

Data set [2] deals with multi-drug-resistant clinical HIV-1 variants. Kind of data set: p24 assay in PHA-PBMs, the six multi-drug-resistant clinical variants taken together. The data set is classed as cell-based. The conditions noted are these: Human immunodeficiency virus 1, read-out: EC50 values against clinical multi-drug-resistant variants. The protocol: The susceptibility of HIV-1LAI to various drugs was determined as previously described with minor modifications. Briefly, MT-2 cells (10^4/ml) were exposed to 100 50% tissue culture infectious doses (TCID50) of HIV-1LAI in the presence or absence of various concentrations of drugs in 96-well microculture plates and were incubated at 37° C. for 7 days. After 100 μl of the medium was removed from each well, 3-(4,5-dimetylthiazol-2-yl)-2,5-diphenyltetrazolium bromide (MTT) solution (10 μl, 7.5 mg/ml in phosphate-buffered saline) was added to each well in the plate, followed by incubation at 37° C. for 2 h. […] All assays were performed in duplicate or triplicate. […] To determine the sensitivity of primary HIV-1 isolates to drugs, phytohemagglutinin-stimulated peripheral blood mononuclear cells (PHA-PBMC) (10^6/ml) were exposed to 50 TCID50 of each primary HIV-1 isolate and cultured in the presence or absence of various concentrations of drugs in 10-fold serial dilutions in 96-well microculture plates. In determining the drug susceptibility of certain laboratory HIV-1 strains, MT-4 cells were employed as target cells as previously described with minor modifications. […] On day 7 of culture, the supernatants were harvested and the amounts of p24 Gag protein were determined by using a fully automated chemiluminescent enzyme immunoassay system (Lumipulse F: Fujirebio Inc., Tokyo). […]

The test system of data set [3] is variants selected with DRV over 10 and 20 passages. Kind of data set: Antiviral activity against DRV-resistant variants selected over 10 and 20 passages. The format is cell-based, HIV-1. The conditions noted are these: Human immunodeficiency virus 1, read-out: EC50 against variants selected with DRV over 10 and 20 passages.
The subject of the next data set is HIV-1ERS104pre. Put plainly: Antiviral activity of brain-side medium from the BBB assay, p24 assay in PHA-PBMs. The format is cell-based. The conditions noted are these: PHA-activated PBMCs. The protocol: The “brain-side” of the medium containing a compound collected in the BBB in vitro assay, was subjected to antiviral assays. Two HIV-1 isolates were employed, HIV-1LAI (Panel A) and HIV-1ERS104pre (Panel B). […] Dilution ranges were between 10-fold and 10,000-fold, and the percentage of viral inhibition was used as an endpoint. […] Assays were conducted in duplicate and error bars show standard deviations.
The assay was carried out using 10, 100, 1000 and 10000 times-diluted brain-side stocks of compounds.

Like-named read-outs stand apart in the source and are kept apart here.

A word on the CC50: it is the concentration that lowers cell viability or growth by half. `COC(=O)N[C@H](C(=O)N[C@@H](Cc1ccccc1)[C@@H](O)CN(Cc1ccc(-c2ccccn2)cc1)NC(=O)[C@@H](NC(=O)OC)C(C)(C)C)C(C)(C)C` [ATV, Atazanavir] registered a half-maximal cytotoxic concentration (CC50) at 7 days in data set [1] of 28600 ± 900 nM.
One may read the EC50 as the concentration that produces a half-maximal response. Turning to `COc1ccc(S(=O)(=O)N(CC(C)C)C[C@@H](O)[C@H](Cc2ccccc2)NC(=O)OC2CO[C@H]3OCC(F)(F)[C@@H]23)cc1` (stereo partly drawn) [GRL-04810], the EC50 in data set [2] lay in the range of 2 to 21 nM; in data set [3], 30 to 34 nM. This compound returned a cytotoxic concentration (CC50) at 7 days in data set [1] of 17500 nM. For the same compound, the “antiviral profile of brain-side preparations (FIG. 5B)” value in the data set with HIV-1ERS104pre is reported as “virtually the same antiviral profiles”.
`CC(C)CN(C[C@@H](O)[C@H](Cc1ccccc1)NC(=O)O[C@H]1CO[C@H]2OCC(F)(F)[C@H]21)S(=O)(=O)c1ccc(N)cc1` [GRL-05010]: the EC50 in data set [2] was in the range of 2 to 21 nM; in data set [3] it was 26 to 43 nM. Also, the “antiviral profile of brain-side preparations (FIG. 5B)” value in the data set on HIV-1ERS104pre is “virtually the same antiviral profiles”.
Regarding `CC(C)(C)NC(=O)[C@@H]1C[C@@H]2CCCC[C@@H]2CN1C[C@@H](O)[C@H](Cc1ccccc1)NC(=O)[C@H](CC(N)=O)NC(=O)c1ccc2ccccc2n1` [SQV, Saquinavir], the CC50 at 7 days in data set [1] (50% cytotoxicity, read-out: CC50) worked out at 17700 ± 3400 nM.
